Data: the supplement of paper PMC10883282
± gives the standard deviation of the averaged measurements.

Columns and labels:
Assay in all cases: relative viability vs DMSO control (72 h) (fraction); higher = more viable cells
[1] = test system: KHOS-240S
How it was run: (§1)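 After seeding at densities set for 80–90% confluence in 384-well plates, sarcoma cell lines waited 24 h before 2.5 µl of serially diluted compound was added. Source plates held 10 mM down to 0.0002 mM. Plates were incubated 72 h at 37 °C with 5% CO2, with 0.1% DMSO vehicle and a 5 µM positive control, and relative viability was taken from ATPLite as percent growth averaged over up to triplicate wells, with 1 set as full and 0 as none.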

[2] = test system: SW872
How it was run: as §1

[3] = test system: A204
How it was run: as §1

[4] = test system: SK-LMS-1
How it was run: as §1

[5] = test system: SYO-1
How it was run: as §1

[6] = test system: SK-ES-1
How it was run: as §1

[7] = test system: HS729
How it was run: as §1

[8] = test system: SW982
How it was run: as §1

[9] = test system: SW1353
How it was run: as §1

[10] = test system: G401
How it was run: as §1

[11] = test system: MES-SA
How it was run: as §1

[12] = test system: SW684
How it was run: as §1

N#CCNC(=O)c1ccc(-c2ccnc(Nc3ccc(N4CCOCC4)cc3)n2)cc1 [Momelotinib]
Settings	relative viability
[1], 0.00017 µM	1.05 ± 0.045
[1], 0.00051 µM	1.03 ± 0.033
[1], 0.00152 µM	1.08 ± 0.033
[1], 0.00457 µM	1.05 ± 0.044
[1], 0.01372 µM	1.08 ± 0.03
[1], 0.04115 µM	1.03 ± 0.036
[1], 0.1235 µM	0.992 ± 0.026
[1], 0.3704 µM	0.92 ± 0.017
[1], 1.111 µM	0.789 ± 0.023
[1], 3.333 µM	0.768 ± 0.035
[1], 10 µM	0.725 ± 0.053
[2], 0.00017 µM	1.07 ± 0.06
[2], 0.00051 µM	1.06 ± 0.035
[2], 0.00152 µM	1.07 ± 0.049
[2], 0.00457 µM	1.025 ± 0.01
[2], 0.01372 µM	1.03 ± 0.013
[2], 0.04115 µM	1.06 ± 0.027
[2], 0.1235 µM	0.973 ± 0.084
[2], 0.3704 µM	0.972 ± 0.037
[2], 1.111 µM	0.765 ± 0.063
[2], 3.333 µM	0.733 ± 0.028
[2], 10 µM	0.654 ± 0.043
[3], 0.00017 µM	1.03 ± 0.038
[3], 0.00051 µM	1.07 ± 0.044
[3], 0.00152 µM	1.05 ± 0.028
[3], 0.00457 µM	1.05 ± 0.012
[3], 0.01372 µM	1.04 ± 0.079
[3], 0.04115 µM	1.06 ± 0.047
[3], 0.1235 µM	0.993 ± 0.018
[3], 0.3704 µM	0.774 ± 0.015
[3], 1.111 µM	0.646 ± 0.0069
[3], 3.333 µM	0.498 ± 0.041
[3], 10 µM	0.284 ± 0.03
[4], 0.00017 µM	1.13 ± 0.037
[4], 0.00051 µM	1.13 ± 0.034
[4], 0.00152 µM	1.11 ± 0.016
[4], 0.00457 µM	1.1 ± 0.034
[4], 0.01372 µM	1.13 ± 0.043
[4], 0.04115 µM	1.06 ± 0.054
[4], 0.1235 µM	1.08 ± 0.035
[4], 0.3704 µM	1.05 ± 0.042
[4], 1.111 µM	0.946 ± 0.0032
[4], 3.333 µM	0.924 ± 0.013
[4], 10 µM	0.886 ± 0.037
[5], 0.00017 µM	1.02 ± 0.045
[5], 0.00051 µM	1.02 ± 0.033
[5], 0.00152 µM	1.01 ± 0.029
[5], 0.00457 µM	1.02 ± 0.043
[5], 0.01372 µM	0.985 ± 0.033
[5], 0.04115 µM	1.01 ± 0.042
[5], 0.1235 µM	0.933 ± 0.051
[5], 0.3704 µM	0.809 ± 0.036
[5], 1.111 µM	0.643 ± 0.051
[5], 3.333 µM	0.503 ± 0.055
[5], 10 µM	0.289 ± 0.064
[6], 0.00017 µM	1.06 ± 0.022
[6], 0.00051 µM	1.05 ± 0.034
[6], 0.00152 µM	1.01 ± 0.067
[6], 0.00457 µM	1.01 ± 0.048
[6], 0.01372 µM	0.978 ± 0.08
[6], 0.04115 µM	0.953 ± 0.024
[6], 0.1235 µM	0.914 ± 0.043
[6], 0.3704 µM	0.781 ± 0.025
[6], 1.111 µM	0.575 ± 0.035
[6], 3.333 µM	0.516 ± 0.021
[6], 10 µM	0.332 ± 0.039
[7], 0.00017 µM	1.07 ± 0.056
[7], 0.00051 µM	1.04 ± 0.029
[7], 0.00152 µM	1.05 ± 0.034
[7], 0.00457 µM	1.06 ± 0.041
[7], 0.01372 µM	1.01 ± 0.011
[7], 0.04115 µM	1.01 ± 0.016
[7], 0.1235 µM	0.995 ± 0.092
[7], 0.3704 µM	0.939 ± 0.07
[7], 1.111 µM	0.859 ± 0.059
[7], 3.333 µM	0.777 ± 0.029
[7], 10 µM	0.741 ± 0.038
[8], 0.00017 µM	0.986 ± 0.056
[8], 0.00051 µM	1.02 ± 0.06
[8], 0.00152 µM	1.025 ± 0.008
[8], 0.00457 µM	1.02 ± 0.042
[8], 0.01372 µM	0.983 ± 0.058
[8], 0.04115 µM	1 ± 0.028
[8], 0.1235 µM	0.987 ± 0.041
[8], 0.3704 µM	0.841 ± 0.043
[8], 1.111 µM	0.604 ± 0.021
[8], 3.333 µM	0.548 ± 0.04
[8], 10 µM	0.436 ± 0.041
[9], 0.00017 µM	1.1 ± 0.034
[9], 0.00051 µM	1.05 ± 0.024
[9], 0.00152 µM	1.07 ± 0.015
[9], 0.00457 µM	1.07 ± 0.025
[9], 0.01372 µM	1.06 ± 0.021
[9], 0.04115 µM	1.04 ± 0.044
[9], 0.1235 µM	1.03 ± 0.048
[9], 0.3704 µM	0.963 ± 0.043
[9], 1.111 µM	0.7816 ± 0.0019
[9], 3.333 µM	0.739 ± 0.025
[9], 10 µM	0.511 ± 0.074
[10], 0.00017 µM	1.01 ± 0.015
[10], 0.00051 µM	1.011 ± 0.01
[10], 0.00152 µM	1.05 ± 0.026
[10], 0.00457 µM	1.06 ± 0.034
[10], 0.01372 µM	1.01 ± 0.017
[10], 0.04115 µM	0.964 ± 0.055
[10], 0.1235 µM	0.975 ± 0.06
[10], 0.3704 µM	0.898 ± 0.041
[10], 1.111 µM	0.779 ± 0.046
[10], 3.333 µM	0.683 ± 0.016
[10], 10 µM	0.54 ± 0.04
[11], 0.00017 µM	0.942 ± 0.014
[11], 0.00051 µM	0.971 ± 0.015
[11], 0.00152 µM	0.9306 ± 0.0073
[11], 0.00457 µM	0.952 ± 0.025
[11], 0.01372 µM	0.934 ± 0.019
[11], 0.04115 µM	0.881 ± 0.045
[11], 0.1235 µM	0.84 ± 0.048
[11], 0.3704 µM	0.786 ± 0.069
[11], 1.111 µM	0.685 ± 0.071
[11], 3.333 µM	0.616 ± 0.018
[11], 10 µM	0.378 ± 0.0055
[12], 0.00017 µM	1.12 ± 0.025
[12], 0.00051 µM	1.15 ± 0.052
[12], 0.00152 µM	1.09 ± 0.064
[12], 0.00457 µM	1.13 ± 0.026
[12], 0.01372 µM	1.12 ± 0.013
[12], 0.04115 µM	1.13 ± 0.08
[12], 0.1235 µM	1.1 ± 0.044
[12], 0.3704 µM	1.02 ± 0.027
[12], 1.111 µM	0.795 ± 0.033
[12], 3.333 µM	0.82 ± 0.11
[12], 10 µM	0.646 ± 0.071
